Test results reported in ChEMBL document CHEMBL1201862, “PubChem BioAssay data set” (2004).
Activity calls are given as the source filed them.

Legend:
[1] = molecular target: Induced myeloid leukemia cell differentiation protein Mcl-1 (Homo sapiens, UniProt Q07820); format: functional
SUMO-activating enzyme [2] = molecular target: T1, SUMO-activating enzyme (Homo sapiens, UniProt Q9UBT2); test: inhibitors of in vitro SUMOylation cascade, primary screen, biochemical, HTRF, uHTS (AID 2006); format: protein-complex assay
T1 sequence (Q9UBE0 whole entry): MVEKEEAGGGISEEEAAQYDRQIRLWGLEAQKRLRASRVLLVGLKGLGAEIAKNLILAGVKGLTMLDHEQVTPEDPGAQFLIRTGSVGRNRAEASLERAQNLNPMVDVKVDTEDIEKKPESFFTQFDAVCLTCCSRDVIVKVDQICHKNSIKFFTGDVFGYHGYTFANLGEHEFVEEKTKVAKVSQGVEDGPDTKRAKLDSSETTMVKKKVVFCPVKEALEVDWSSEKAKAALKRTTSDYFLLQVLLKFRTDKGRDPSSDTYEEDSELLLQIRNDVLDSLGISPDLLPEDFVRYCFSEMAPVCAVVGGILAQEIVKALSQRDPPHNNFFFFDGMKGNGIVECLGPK
T1 sequence (Q9UBT2 whole entry): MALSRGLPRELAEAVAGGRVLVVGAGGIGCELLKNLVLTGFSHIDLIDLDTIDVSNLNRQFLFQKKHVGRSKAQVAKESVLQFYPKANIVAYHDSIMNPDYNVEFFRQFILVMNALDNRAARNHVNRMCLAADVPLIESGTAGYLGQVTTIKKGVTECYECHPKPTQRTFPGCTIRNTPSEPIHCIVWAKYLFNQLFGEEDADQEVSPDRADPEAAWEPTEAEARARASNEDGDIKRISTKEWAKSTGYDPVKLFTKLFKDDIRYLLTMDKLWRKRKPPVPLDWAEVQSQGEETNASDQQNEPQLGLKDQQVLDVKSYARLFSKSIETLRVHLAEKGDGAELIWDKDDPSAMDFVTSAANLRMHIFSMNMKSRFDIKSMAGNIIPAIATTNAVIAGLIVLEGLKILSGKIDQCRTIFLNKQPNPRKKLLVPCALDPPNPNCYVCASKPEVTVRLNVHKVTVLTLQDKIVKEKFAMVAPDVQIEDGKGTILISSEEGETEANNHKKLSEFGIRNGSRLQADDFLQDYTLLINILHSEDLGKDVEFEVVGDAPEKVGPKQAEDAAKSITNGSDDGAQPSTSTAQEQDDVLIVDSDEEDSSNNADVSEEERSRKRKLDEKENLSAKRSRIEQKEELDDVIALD

SUMO-activating enzyme [3] = molecular target: T1, SUMO-activating enzyme; test: SUMOylation inhibitor hit validation, confirmation, SUMOylation inhibitor project, biochemical, AlphaScreen (AID 2018); format: functional
[4] = molecular target: T2, E3 ubiquitin-protein ligase XIAP (Homo sapiens, UniProt P98170); test: XIAP antagonists, biochemical, IAP family, fluorescence polarization (AID 1018); format: functional
T2 sequence (P98170 whole entry): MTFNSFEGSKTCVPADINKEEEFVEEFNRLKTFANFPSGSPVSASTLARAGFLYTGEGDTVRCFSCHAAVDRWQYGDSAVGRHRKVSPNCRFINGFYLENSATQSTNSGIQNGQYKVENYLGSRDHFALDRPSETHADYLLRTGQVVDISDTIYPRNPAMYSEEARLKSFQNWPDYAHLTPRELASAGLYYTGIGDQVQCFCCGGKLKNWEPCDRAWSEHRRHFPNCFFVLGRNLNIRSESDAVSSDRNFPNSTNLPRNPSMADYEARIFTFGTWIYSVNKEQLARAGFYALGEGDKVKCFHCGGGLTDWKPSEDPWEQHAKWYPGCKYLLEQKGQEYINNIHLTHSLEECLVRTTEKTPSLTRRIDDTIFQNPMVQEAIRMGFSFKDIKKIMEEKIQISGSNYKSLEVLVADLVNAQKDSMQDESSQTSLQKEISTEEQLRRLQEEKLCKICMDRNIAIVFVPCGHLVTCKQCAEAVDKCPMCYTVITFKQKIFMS

[5] = molecular target: T2, E3 ubiquitin-protein ligase XIAP; test: Counter Screen using XIAP-Bir3 for Chemical Antagonists of Bir1/2 domains of IAP-family anti-apoptotic proteins. [Related pubchem assays (depositor defined):AID1018, AID1449, AID1514, AID1638, AID1749, AID1750, AID488957, AID488963]
[6] = Vero E6 cell cytotoxicity, dose response, cytotoxicity control for non-replicating M. tuberculosis project, secondary assay (AID 492998); format: functional, VeroE6; conditions: Vero C1008
Oxytocin receptor = Oxytocin receptor (Homo sapiens, UniProt P30559); test: Fluorescence-based cell-based high throughput dose response assay for agonists of the Oxytocin Receptor (OXTR). [Related pubchem assays: 2435 (Primary screen (OXTR agonists in singlicate)), 434991 (Counterscreen (V1R agonists in triplicate)), 2482 (Summary (OXTR agonists)), 434963 (Confirmation screen (OXTR agonists in triplicate))]; format: functional
Chain of Oxytocin receptor (P30559 whole entry): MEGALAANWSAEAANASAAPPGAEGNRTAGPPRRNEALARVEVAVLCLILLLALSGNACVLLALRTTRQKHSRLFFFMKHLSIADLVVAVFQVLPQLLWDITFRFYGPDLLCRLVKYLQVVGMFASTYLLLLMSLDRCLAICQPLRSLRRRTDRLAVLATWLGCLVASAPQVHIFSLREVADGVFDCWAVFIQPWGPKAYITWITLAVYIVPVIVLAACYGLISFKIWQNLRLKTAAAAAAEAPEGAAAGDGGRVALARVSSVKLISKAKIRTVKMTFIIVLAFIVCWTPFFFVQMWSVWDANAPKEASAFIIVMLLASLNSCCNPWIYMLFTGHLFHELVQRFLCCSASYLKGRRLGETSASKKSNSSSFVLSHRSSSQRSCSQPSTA

[7] = HepG2 cell cytotoxicity, dose response, cytotoxicity control for non-replicating M. tuberculosis project (AID 489018); format: functional; conditions: Mycobacterium tuberculosis
[8] = THP-1 cell cytotoxicity, dose response, cytotoxicity control for non-replicating M. tuberculosis project (AID 489025); format: functional
Vasopressin V1a receptor = Vasopressin V1a receptor (Homo sapiens, UniProt P37288); test: Counterscreen for Oxytocin Receptor (OXTR) agonists: Fluorescence-based cell-based high throughput dose response assay to identify agonists of the vasopressin 1 receptor (V1R). [Related pubchem assays: 2435 (Primary screen (OXTR agonists in singlicate)), 434991 (Counterscreen (V1R agonists in triplicate)), 2482 (Summary (OXTR agonists)) …; format: functional
Chain of Vasopressin V1a receptor (P37288 whole entry): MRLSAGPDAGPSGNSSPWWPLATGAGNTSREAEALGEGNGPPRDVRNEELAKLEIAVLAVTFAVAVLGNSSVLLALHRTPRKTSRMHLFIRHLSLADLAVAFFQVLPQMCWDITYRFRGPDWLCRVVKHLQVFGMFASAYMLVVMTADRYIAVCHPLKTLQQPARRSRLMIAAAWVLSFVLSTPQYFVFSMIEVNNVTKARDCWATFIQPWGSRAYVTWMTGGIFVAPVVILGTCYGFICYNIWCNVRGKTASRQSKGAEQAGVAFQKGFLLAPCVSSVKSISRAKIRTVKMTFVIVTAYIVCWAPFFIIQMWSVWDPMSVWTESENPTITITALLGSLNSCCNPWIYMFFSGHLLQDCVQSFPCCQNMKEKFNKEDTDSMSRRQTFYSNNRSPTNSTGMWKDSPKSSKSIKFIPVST

cells = format: functional
[9] = Luminescence-based cell-based high throughput dose response assay to identify activators of the DAF-12 from the parasite S. stercoralis (ssDAF-12).; format: functional
[10] = HEK293T cytotoxicity, dose response, cytotoxicity control for miR-122 modulator project, cell-based, activator set, cherry-pick (AID 720690); format: functional;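 further: HEK293T human cells scored for general mammalian cytotoxicity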
[11] = miR-122 activators in hepatoma reporter cells, dose response, cell-based, Huh7 psiCHECK-miR122, Renilla luciferase, cherry-picked (AID 651956); format: functional;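 further: huh7 hepatoma cells stably carrying a psiCHECK-2 miR-122 sensor plasmid; renilla luciferase signal reporting endogenous miR-122 activity after 48 h compound exposure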
[12] = cytotoxicity toward NIH3T3 fibroblasts, dose response, counter-screen, cell-based, ATP luminescence, mouse fibroblasts (AID 2010); format: functional;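 further: cells exposed to compound for about 90 hours before reading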
[13] = molecular target: T3, Ubiquitin-conjugating enzyme E2 N (Homo sapiens, UniProt P61088); format: functional
T3 sequence (P61088 whole entry): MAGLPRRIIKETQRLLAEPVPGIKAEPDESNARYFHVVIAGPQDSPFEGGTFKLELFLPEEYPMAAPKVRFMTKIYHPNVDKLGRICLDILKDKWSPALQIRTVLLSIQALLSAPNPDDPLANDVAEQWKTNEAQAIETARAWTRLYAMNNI

Bcl-2-related protein A1 = molecular target: T4, Bcl-2-related protein A1 (Mus musculus, UniProt Q07440); format: functional;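 further: confirmatory dose–response counterscreen on Bfl-1, used to check hits from a UBC13 polyubiquitin inhibitor campaign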
T4 sequence (Q07440 whole entry): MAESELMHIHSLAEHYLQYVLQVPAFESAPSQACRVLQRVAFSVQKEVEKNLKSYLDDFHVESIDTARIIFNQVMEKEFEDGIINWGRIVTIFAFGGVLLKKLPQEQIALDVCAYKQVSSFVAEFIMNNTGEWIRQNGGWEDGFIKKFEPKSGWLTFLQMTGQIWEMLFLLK

[14] = molecular target: T3, Ubiquitin-conjugating enzyme E2 N; format: functional; remark: listed apart in the source
[15] = inhibitors of intracellular T. cruzi replication, confirmation, NIH3T3 host cells, beta-gal luminescence (AID 2044); format: functional, cell-based;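 further: intracellular parasites grown in NIH/3T3 mouse fibroblasts as host cells; luminescent beta-galactosidase reporter signal from transgenic T. cruzi replicating inside host cells; inhibitors lower the luminescence signal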
[16] = molecular target: T5, Alkaline phosphatase, tissue-nonspecific isozyme (Homo sapiens, UniProt P05186); test: human TNAP enzyme inhibitors, SAR follow-up, biochemical, luminescent, dose response (AID 1056)
T5 sequence (P05186 whole entry): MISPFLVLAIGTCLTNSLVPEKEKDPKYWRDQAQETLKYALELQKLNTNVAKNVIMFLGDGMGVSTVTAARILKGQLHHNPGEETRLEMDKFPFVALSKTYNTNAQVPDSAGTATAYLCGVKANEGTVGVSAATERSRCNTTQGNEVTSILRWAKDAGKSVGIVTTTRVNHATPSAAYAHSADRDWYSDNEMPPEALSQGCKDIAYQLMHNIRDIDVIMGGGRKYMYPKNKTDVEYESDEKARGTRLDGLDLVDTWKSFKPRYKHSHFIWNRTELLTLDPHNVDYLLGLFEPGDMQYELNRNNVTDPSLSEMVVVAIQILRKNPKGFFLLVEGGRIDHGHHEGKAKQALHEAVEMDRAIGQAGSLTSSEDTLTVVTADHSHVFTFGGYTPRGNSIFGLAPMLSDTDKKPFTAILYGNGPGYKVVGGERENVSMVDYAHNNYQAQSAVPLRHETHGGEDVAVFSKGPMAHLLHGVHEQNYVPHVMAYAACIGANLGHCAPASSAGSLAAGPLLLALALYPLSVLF

[17] = molecular target: Glyceraldehyde-3-phosphate dehydrogenase (Homo sapiens, UniProt P04406)
Chain of Glyceraldehyde-3-phosphate dehydrogenase (P04406 whole entry): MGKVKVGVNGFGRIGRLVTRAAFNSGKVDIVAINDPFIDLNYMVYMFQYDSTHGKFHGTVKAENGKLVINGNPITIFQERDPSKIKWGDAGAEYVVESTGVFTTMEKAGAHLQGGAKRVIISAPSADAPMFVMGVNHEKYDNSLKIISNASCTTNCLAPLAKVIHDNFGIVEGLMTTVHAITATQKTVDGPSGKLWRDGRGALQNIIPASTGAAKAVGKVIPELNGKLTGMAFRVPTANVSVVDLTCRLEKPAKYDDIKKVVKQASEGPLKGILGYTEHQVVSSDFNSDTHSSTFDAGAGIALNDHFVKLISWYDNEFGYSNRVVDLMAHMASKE

[18] = molecular target: Peroxisome proliferator-activated receptor gamma/Nuclear receptor coactivator 2 (Homo sapiens, UniProt P37231); test: (§1) TR-FRET dose response biochemical High Throughput Screening assay for agonists of the steroid receptor coactivator 2 (SRC-2) recruitment by the peroxisome proliferator-activated receptor gamma (PPAR gamma): non-selective agonists. [Related pubchem assays: 1297, 1032 ]; format: functional
[19] = molecular target: Peroxisome proliferator-activated receptor gamma/Nuclear receptor coactivator 3 (Homo sapiens, UniProt P37231); test: as §1, with “3 (SRC-3)” for “2 (SRC-2)”, “1301 (Confirmation screen.), 1048 (Primary screen.)]” for “1297, 1032 ]”; format: functional
Chain of Peroxisome proliferator-activated receptor gamma/Nuclear receptor coactivator 3 (P37231 whole entry): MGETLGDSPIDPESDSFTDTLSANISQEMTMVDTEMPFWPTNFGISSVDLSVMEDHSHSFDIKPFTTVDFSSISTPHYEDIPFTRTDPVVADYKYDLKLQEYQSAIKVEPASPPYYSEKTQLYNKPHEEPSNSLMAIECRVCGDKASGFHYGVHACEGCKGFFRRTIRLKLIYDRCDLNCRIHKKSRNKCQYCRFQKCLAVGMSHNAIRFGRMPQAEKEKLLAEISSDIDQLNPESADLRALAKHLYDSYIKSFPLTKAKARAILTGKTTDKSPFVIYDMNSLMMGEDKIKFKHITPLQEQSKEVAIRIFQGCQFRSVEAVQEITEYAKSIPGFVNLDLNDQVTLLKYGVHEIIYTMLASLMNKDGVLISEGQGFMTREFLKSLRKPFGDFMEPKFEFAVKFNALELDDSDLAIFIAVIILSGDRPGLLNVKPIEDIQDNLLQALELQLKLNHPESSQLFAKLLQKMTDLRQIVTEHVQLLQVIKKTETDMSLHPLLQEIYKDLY
Chain of Peroxisome proliferator-activated receptor gamma/Nuclear receptor coactivator 3 (Q9Y6Q9 whole entry, further chain): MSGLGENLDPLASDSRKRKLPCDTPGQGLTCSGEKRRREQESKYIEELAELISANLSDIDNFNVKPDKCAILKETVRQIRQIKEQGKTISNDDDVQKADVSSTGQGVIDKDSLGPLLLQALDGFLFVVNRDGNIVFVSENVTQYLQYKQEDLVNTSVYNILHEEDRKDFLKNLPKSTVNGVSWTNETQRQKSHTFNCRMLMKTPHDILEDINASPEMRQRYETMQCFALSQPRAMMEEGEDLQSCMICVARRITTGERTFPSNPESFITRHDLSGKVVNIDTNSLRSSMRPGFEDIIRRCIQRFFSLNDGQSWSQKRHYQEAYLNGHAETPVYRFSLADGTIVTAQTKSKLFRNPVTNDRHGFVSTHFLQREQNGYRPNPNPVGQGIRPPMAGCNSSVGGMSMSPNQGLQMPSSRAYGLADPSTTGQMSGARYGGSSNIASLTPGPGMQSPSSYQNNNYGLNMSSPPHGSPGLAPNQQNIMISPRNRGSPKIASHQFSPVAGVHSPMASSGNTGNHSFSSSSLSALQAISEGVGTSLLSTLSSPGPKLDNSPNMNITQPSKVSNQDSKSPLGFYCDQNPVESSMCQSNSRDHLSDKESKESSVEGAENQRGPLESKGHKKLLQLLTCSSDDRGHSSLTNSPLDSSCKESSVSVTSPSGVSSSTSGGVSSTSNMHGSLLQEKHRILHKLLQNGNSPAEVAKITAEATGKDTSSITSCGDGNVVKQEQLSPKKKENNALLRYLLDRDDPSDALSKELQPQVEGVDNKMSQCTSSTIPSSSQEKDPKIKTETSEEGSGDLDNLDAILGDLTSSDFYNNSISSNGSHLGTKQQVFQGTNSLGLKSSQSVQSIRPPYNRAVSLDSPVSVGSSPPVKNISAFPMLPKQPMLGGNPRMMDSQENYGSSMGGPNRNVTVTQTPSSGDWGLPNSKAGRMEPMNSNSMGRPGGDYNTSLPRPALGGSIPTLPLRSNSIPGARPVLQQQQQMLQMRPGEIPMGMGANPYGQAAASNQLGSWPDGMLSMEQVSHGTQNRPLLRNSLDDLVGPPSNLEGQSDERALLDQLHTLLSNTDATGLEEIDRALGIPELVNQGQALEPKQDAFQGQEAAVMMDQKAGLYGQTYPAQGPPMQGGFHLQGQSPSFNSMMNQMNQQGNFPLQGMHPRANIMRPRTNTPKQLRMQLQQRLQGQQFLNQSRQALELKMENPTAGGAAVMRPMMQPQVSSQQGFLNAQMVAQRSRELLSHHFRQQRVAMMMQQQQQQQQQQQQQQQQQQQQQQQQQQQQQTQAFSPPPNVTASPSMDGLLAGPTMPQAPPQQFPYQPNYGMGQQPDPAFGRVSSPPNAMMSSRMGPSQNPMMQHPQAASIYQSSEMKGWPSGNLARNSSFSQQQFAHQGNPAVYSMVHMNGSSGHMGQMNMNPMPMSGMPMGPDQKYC

[20] = molecular target: Peroxisome proliferator-activated receptor gamma/Nuclear receptor coactivator 1 (Homo sapiens, UniProt P37231); test: as §1, with “1 (SRC-1)” for “2 (SRC-2)”, “assays (depositor defined):AID1300, AID1808, AID504735, AID631]” for “assays: 1297, 1032 ]”; format: protein assay

Chain of Induced myeloid leukemia cell differentiation protein Mcl-1 (Q07820 whole entry): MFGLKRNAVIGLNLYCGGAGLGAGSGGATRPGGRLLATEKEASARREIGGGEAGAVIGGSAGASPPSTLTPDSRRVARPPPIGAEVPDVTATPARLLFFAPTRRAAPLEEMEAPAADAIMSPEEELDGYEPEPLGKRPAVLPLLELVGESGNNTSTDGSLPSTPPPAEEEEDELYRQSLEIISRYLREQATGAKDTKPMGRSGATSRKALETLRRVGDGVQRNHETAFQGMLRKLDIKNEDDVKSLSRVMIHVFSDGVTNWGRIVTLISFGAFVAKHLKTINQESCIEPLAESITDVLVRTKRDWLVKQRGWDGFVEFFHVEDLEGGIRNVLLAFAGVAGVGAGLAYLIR

COc1ccc(/C=C2/SC(=S)N(c3ccc(S(=O)(=O)Nc4nccs4)cc3)C2=O)cc1
IC50 [1]: 1.98 µM (active)
IC50 (SUMO-activating enzyme [2]): 5.9 µM (active)
IC50 (SUMO-activating enzyme [3]): 1.18 µM (active)

COc1ccc(CC2(CO)CCN(Cc3cnn(C)c3)CC2)cc1
IC50 [4]: > 100 µM (not active)
IC50 [5]: > 100 µM (inactive)

Clc1ccc2c(c1)C(N1CCNCC1)Cc1ccccc1S2 (stereo unspecified)
CC50 [6]: 11.5 µM (active)
EC50 (Oxytocin receptor): > 9.97 µM (active)
CC50 [7]: 8.65 µM (active)
CC50 [8]: 12 µM (active)
EC50 (Vasopressin V1a receptor): 21.3 µM (not active)
IC50 (cells): 15.5 µM (active)

Cc1c(C(=O)N2CCc3ccccc32)oc2ccccc12
IC50 [4]: > 100 µM (not active)
IC50 [9]: > 67.6 µM (inactive)
IC50 [5]: > 100 µM (inactive)

CCN(CC)CCNC(=O)c1ccc(NC(=O)c2cn(-c3ccc(F)cc3)nc2-c2cccc(OC)c2)cc1
AC50 [10]: 15.8 µM (active)
AC50 [11]: 11.1 µM (active)
EC50 [12]: > 60 µM (not active)
IC50 [13]: 8.8 µM (active)
IC50 (Bcl-2-related protein A1): > 20 µM (inactive)
IC50 [14]: 14.6 µM (active)
EC50 [15]: 3.25 µM (active)

O=C1C2CCCCC2C(=O)N1c1ncn[nH]1 (stereo unspecified)
IC50 [16]: > 100 µM (inactive)
IC50 [17]: > 100 µM (not active)

O=c1c2ccccc2c(-c2nnc(S)o2)nn1Cc1ccccc1
EC50 [18]: 11.6 µM (not active)
EC50 [19]: 63.6 µM (not active)
EC50 [20]: 10.3 µM (inactive)
